Measured values as given in ChEMBL document CHEMBL4177658, “Benzo[c][1,2,5]thiadiazole derivatives: A new class of potent Src homology-2 domain containing protein tyrosine phosphatase-2 (SHP2) inhibitors” (Bioorg Med Chem Lett, 2017).
pIC50: −log10 of the molar value.

What was measured:
[1] = molecular target: T1, Tyrosine-protein phosphatase non-receptor type 1 (Homo sapiens) (UniProt P18031); test: Inhibition of GST-tagged PTP1B (unknown origin) at 20 ug/ml using pNPP as substrate measured for 3 mins by colorimetric assay
T1 sequence (whole entry): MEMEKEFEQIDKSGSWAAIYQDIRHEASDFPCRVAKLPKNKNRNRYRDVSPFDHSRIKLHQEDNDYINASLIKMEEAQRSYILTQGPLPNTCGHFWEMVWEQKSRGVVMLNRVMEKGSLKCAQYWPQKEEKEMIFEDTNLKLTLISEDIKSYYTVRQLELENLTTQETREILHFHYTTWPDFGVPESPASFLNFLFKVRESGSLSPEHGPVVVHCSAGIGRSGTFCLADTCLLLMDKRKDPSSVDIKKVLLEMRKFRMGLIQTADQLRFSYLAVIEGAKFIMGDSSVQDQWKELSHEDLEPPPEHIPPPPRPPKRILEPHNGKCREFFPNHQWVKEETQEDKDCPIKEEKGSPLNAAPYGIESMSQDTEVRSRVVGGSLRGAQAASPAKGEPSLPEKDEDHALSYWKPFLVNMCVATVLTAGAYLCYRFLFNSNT

[2] = molecular target: T2, Tyrosine-protein phosphatase non-receptor type 11 (Homo sapiens) (UniProt Q06124); test: Inhibition of SHP2 (unknown origin) at 20 ug/ml using 3-o-methylfluorescein phosphate as substrate by fluorescence assay
T2 sequence (whole entry): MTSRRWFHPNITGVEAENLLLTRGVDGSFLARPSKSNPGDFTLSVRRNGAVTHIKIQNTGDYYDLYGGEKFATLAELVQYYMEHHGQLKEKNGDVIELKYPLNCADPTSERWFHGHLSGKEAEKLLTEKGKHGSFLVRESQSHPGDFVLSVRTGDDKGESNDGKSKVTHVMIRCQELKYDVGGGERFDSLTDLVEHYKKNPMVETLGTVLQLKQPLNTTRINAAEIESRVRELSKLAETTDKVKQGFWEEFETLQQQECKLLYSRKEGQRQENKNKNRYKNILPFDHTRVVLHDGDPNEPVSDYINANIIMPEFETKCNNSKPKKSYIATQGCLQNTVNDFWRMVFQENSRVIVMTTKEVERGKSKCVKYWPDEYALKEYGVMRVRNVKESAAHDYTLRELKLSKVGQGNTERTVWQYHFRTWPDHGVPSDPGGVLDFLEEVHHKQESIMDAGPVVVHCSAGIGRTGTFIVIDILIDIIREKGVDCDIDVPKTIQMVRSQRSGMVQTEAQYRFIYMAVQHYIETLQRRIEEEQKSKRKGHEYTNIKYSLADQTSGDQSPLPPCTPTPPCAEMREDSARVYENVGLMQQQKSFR

[3] = molecular target: T3, Tyrosine-protein phosphatase non-receptor type 1 (Homo sapiens, UniProt P18031); test: Inhibition of GST-tagged PTP1B (unknown origin) using pNPP as substrate measured for 3 mins by colorimetric assay
T3 sequence (P18031 whole entry): T1 sequence (whole entry)

[4] = molecular target: T4, Tyrosine-protein phosphatase non-receptor type 11 (Homo sapiens, UniProt Q06124); test: Inhibition of SHP2 (unknown origin) using 3-o-methylfluorescein phosphate as substrate by fluorescence assay
T4 sequence (Q06124 whole entry): T2 sequence (whole entry)

[5] = molecular target: T5, Tyrosine-protein phosphatase non-receptor type 2 (Homo sapiens) (UniProt P17706); test: Inhibition of GST-tagged TCPTP (unknown origin) at 20 ug/ml using pNPP as substrate measured for 3 mins by colorimetric assay
T5 sequence (whole entry): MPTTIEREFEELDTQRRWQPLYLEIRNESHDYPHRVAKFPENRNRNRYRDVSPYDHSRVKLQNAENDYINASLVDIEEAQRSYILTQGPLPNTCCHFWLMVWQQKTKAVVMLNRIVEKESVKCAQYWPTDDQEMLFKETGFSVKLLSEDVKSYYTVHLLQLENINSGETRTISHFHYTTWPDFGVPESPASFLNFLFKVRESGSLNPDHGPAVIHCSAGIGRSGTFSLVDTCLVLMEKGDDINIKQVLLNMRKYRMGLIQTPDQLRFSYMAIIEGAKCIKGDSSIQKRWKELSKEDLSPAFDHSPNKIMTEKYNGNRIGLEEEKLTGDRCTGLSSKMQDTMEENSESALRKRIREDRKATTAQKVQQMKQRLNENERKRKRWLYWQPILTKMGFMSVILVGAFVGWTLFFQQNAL

Homo sapiens [6] = species on record: Homo sapiens; test: Selectivity index, ratio of IC50 for SHP1 (unknown origin) to IC50 for SHP2 (unknown origin)
[7] = molecular target: Tyrosine-protein phosphatase non-receptor type 6 (Homo sapiens, UniProt P29350); test: Inhibition of SHP1 (unknown origin) using 3-o-methylfluorescein phosphate as substrate by fluorescence assay
Homo sapiens [8] = species on record: Homo sapiens; test: Selectivity index, ratio of IC50 for GST-tagged PTP1B (unknown origin) to iC50 for SHP2 (unknown origin)

Chain of Tyrosine-protein phosphatase non-receptor type 6 (P29350 whole entry): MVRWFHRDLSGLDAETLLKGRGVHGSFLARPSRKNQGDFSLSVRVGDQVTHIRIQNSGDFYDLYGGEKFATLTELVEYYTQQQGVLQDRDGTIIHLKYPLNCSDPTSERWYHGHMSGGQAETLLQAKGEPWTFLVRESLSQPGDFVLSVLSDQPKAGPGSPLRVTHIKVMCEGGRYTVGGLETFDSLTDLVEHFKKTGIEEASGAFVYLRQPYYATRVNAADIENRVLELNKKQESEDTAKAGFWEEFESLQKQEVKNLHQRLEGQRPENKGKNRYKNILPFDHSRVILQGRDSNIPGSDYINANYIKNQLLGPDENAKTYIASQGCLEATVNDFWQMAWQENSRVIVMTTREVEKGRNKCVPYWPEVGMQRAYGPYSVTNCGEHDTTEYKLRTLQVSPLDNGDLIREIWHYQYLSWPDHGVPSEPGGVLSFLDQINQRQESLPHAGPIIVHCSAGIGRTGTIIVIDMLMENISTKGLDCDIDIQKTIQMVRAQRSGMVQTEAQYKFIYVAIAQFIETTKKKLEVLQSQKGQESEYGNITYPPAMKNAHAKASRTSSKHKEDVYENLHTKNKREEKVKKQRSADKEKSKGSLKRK

| inhibition [1] [%] | inhibition [2] [%] | pIC50 [4] | further results | SMILES |
| --- | --- | --- | --- | --- |
| < 50 | < 50 |  |  | O=[N+]([O-])c1cc2nsnc2cc1C#CCCCCCl |
|  |  | 5.24 | pIC50 [3]: 4.42 | Nc1cc2nsnc2cc1C#CCCCCCl |
| < 50 | < 50 |  |  | O=[N+]([O-])c1cc2nsnc2cc1C#CC1CC1 |
| < 50 |  | 4.41 |  | Nc1ccc2nsnc2c1 |
| < 50 |  | 4.59 |  | CC(C)(C)C#Cc1cc2nsnc2cc1N |
| < 50 | < 50 |  |  | c1coc(CNc2ccc3nsnc3c2)c1 |
| < 50 | < 50 |  |  | C[Si](C)(C)C#Cc1cc2nsnc2cc1N |
| < 50 | < 50 |  |  | CC(C)(C)C#Cc1cc2nsnc2cc1[N+](=O)[O-] |
| < 50 | < 50 |  |  | O=[N+]([O-])c1cc2nsnc2cc1-c1ccccc1 |
| < 50 | < 50 |  |  | CCCNc1ccc2nsnc2c1 |
| < 50 |  | 4.51 |  | c1ccc(CNc2ccc3nsnc3c2)nc1 |
|  |  | 5.68 | inhibition [5]: < 50%; Ratio IC50 (Homo sapiens [6]): 2.02; pIC50 [7]: 5.37; pIC50 [3]: 4.30; Ratio IC50 (Homo sapiens [8]): 25 | C#Cc1cc2nsnc2cc1N |
| < 50 | < 50 |  |  | O=[N+]([O-])c1cc2nsnc2cc1C#Cc1ccccc1 |
|  |  | 4.85 | pIC50 [3]: 4.47 | Nc1cc2nsnc2cc1C#Cc1ccccc1 |
|  |  | 4.62 | pIC50 [3]: 4.32 | c1csc(CNc2ccc3nsnc3c2)c1 |
| < 50 |  | 4.37 |  | Nc1cc2nsnc2cc1Br |
| < 50 | < 50 |  |  | c1cc2nsnc2cc1NCC1CCCCC1 |
|  |  | 4.58 | pIC50 [3]: 4.38 | c1ccc(CNc2ccc3nsnc3c2)cc1 |
| < 50 |  | 4.52 |  | C#Cc1cc2nsnc2cc1[N+](=O)[O-] |
| < 50 |  | 4.81 |  | Nc1cc2nsnc2cc1C#CC1CC1 |
| < 50 | < 50 |  |  | Nc1cc2nsnc2cc1-c1ccccc1 |
| < 50 | < 50 |  |  | C[Si](C)(C)C#Cc1cc2nsnc2cc1[N+](=O)[O-] |
